{
  "source": "patent US20080051319A1",
  "about": "“Inhibiting JNK Signaling Promotes CNS Axon Regeneration” (Children's Medical Center Corporation, priority 2006, published 2008)",
  "test_system": "4 week-old rat DRGs",
  "assay": "in vitro neurite outgrowth assay on immobilized AP-Nogo-66",
  "assay_type": "cell-based",
  "procedure": "JNK is a member of the mitogen-activated protein kinase (MAP kinase) family which is abundantly expressed in axons and growth cones, and has been implicated in numerous roles including cell stress and cell proliferation. […] Briefly, 4 week-old rat DRGs were dissected, dissociated and plated onto immobilized substrates (AP (100 ng/cm^2) or AP-Nogo-66 (100 ng/cm^2)). Cells were cultured for 24 h before fixation with 4% paraformaldehyde and staining with a neuronal-specific anti-β-tubulin III antibody (Tuj-1, Covance). The average lengths of the longest neurite in individual neurons were measured from at least 150 neurons per condition, from duplicate wells and from three independent experiments, and quantified as described previously. Immunohistochemistry was performed using antibodies against p75 (Chemicon).",
  "data": [
    {"smiles": "Oc1c2ccccc2c2c3c(cccc13)N=N2", "note": "[SP600125]", "values": [
      {"measurement": "concentrations resulting in an abortion of neurite extension", "value": "above 5 μM"}
    ]}
  ]
}
